Experimental findings from PMC4666306 (European journal of medicinal chemistry, 2015) are described below.

Experiment [1] concerns BaF3 cells transformed with FLT3-ITD containing activation loop (D835V) mutation. As to conditions: 48 h post treatment.
Experiment [2] concerns BaF3 cells transformed with FLT3-ITD containing gatekeeper (F691L) mutation. As to conditions: 48 h post treatment.

Molecules are shown by their SMILES.

For the compound `Fc1ccc(-c2cnc3cc(-c4ccco4)ccn23)cc1` [Compound 21, 3-(4-Fluorophenyl)-7-(furan-2-yl)imidazo[1,2-a]pyridine], the “GI50 +ITD D835V” value in experiment [1] is “ineffective”. Also, the “GI50 +ITD F691L” value in experiment [2] is reported as “ineffective”.
